We go through 20 compounds from article PMC3928365, “Species-Selective Killing of Bacteria by Antimicrobial Peptide-PNAs” (PLoS ONE, 2014).

Experiment in all cases: Antibiotic disc susceptibility testing (BSAC method)
Holding throughout (settings): antibiotic disks (Oxoid), amount per disc per antibiotic (5-30 μg)

Assay [1] has as its system E. coli. It is filed as cell-based, Escherichia coli. Here is the method:
(§1) Strains were tested with twenty different antibiotic disks (Oxoid, UK) representing the major classes of antimicrobial compounds. Tests were done according to the standardized disc susceptibility testing method of the British Society for Antimicrobial Chemotherapy, [37]. The minimum inhibitory concentration (MIC) of the peptide-PNA conjugants were determined using a method modified from Hacek et al and Friedman et al: Peptide-PNA conjugants, obtained as lyophilized powder (Panagene, Korea), were dissolved in ddH20. MIC assays were performed in an ultra low-bind (Costar, UK) polystyrene 96-well plate format in a final volume of 150 µl MMLB. An extended gradient of peptide-PNA concentrations was created by combining five sets of twofold serial dilutions from four starting concentrations (10, 4.8, 3.2 […]); giving 55 final peptide-PNA concentrations which extended over five rows of the 96-well plate. All cultures were incubated at 35°C for 16 h without shaking or agitation. Each peptide-PNA MIC calculation was performed in triplicate, each replicate representing a different starting colony. Mixed-culture experiments were conducted as above with a 1×10^4 CFU/ml starting inoculum. For growth curve analysis, 200 µl cultures were grown in a BioTek PowerWave HT spectrophotometer, under constant agitation at 37°C in a 96-well plate covered with a breathable film. Growth (OD550) was monitored every 5 mins, each experiment was performed in triplicate.

In assay [2] the test system is K. pneumoniae. The assay is classed as cell-based, Klebsiella pneumoniae. How it is done:
as §1

The test system of assay [3] is S. Typhimurium. It is filed as cell-based, Salmonella enterica serovar Typhimurium. How it is done:
as §1

In assay [4] the test system is B. subtilis. The assay is classed as cell-based, Bacillus subtilis. How it is done: as §1, with “For growth curve analysis, 200 µl cultures were grown in a BioTek PowerWave HT spectrophotometer, under constant agitation at 37°C in a 96-well plate covered with a breathable film.” left out

With `CO/N=C(\C(=O)N[C@@H]1C(=O)N2C(C(=O)O)=C(COC(C)=O)CS[C@H]12)c1csc(N)n1` [Cefotaxime], the “Sensitive (S)/Resistant (R), E. coli” value in assay [1] was “S”. Moreover, in assay [2], the “Sensitive (S)/Resistant (R), K. pneumoniae” value (shortened to “Sensitive … K. pneumoniae”) is “S”. In addition, the “Sensitive (S)/Resistant (R), S. Typhimurium” value (shortened to “Sensitive … S. Typhimurium”) in assay [3] was “S”.

In the case of `CC1COc2c(N3CCN(C)CC3)c(F)cc3c(=O)c(C(=O)O)cn1c23` (stereo not shown) [Oflaxacin], in assay [4], the “Sensitive (S)/Resistant (R), B. subtilis” value was “S”. Besides, the “Sensitive (S)/Resistant (R), E. coli” value in assay [1] is “S”. Moreover, the “Sensitive … K. pneumoniae” value in assay [2] is “S”. For the same compound, in assay [3], the “Sensitive … S. Typhimurium” value is “S”.

`CNC(C)C1CCC(N)C(OC2C(N)CC(N)C(OC3OCC(C)(O)C(NC)C3O)C2O)O1` (stereo not shown) [Gentamicin]: the “Sensitive (S)/Resistant (R), E. coli” value in assay [1] is “S”. For the same compound, the “Sensitive … K. pneumoniae” value in assay [2] is recorded as “R”. For the same compound, in assay [3], the “Sensitive … S. Typhimurium” value is listed as “S”.

Consider `COc1cc(Cc2cnc(N)nc2N)cc(OC)c1OC` [Trimethoprim], for which, in assay [1], the “Sensitive (S)/Resistant (R), E. coli” value is on record as “S”. Besides, the “Sensitive … K. pneumoniae” value in assay [2] is listed as “R”. In assay [3], the “Sensitive … S. Typhimurium” value is given as “S”.

With `CC[C@H]1OC(=O)[C@H](C)[C@@H](O[C@H]2C[C@@](C)(OC)[C@@H](O)[C@H](C)O2)[C@H](C)[C@@H](O[C@@H]2O[C@H](C)C[C@H](N(C)C)[C@H]2O)[C@](C)(O)C[C@@H](C)CN(C)[C@H](C)[C@@H](O)[C@]1(C)O` [Azithromycin], in assay [1], the “Sensitive (S)/Resistant (R), E. coli” value is given as “R”. For the same compound, the “Sensitive … K. pneumoniae” value in assay [2] is “R”. Besides, the “Sensitive … S. Typhimurium” value in assay [3] is reported as “R”.

On to `COc1cccc(OC)c1C(=O)N[C@@H]1C(=O)N2[C@@H]1SC(C)(C)[C@@H]2C(=O)O` [Methicillin], for which the “Sensitive (S)/Resistant (R), E. coli” value in assay [1] is “S”. Moreover, in assay [2], the “Sensitive … K. pneumoniae” value is recorded as “R”. In addition, the “Sensitive … S. Typhimurium” value in assay [3] is listed as “S”.

`CN[C@H](CC(C)C)C(=O)N[C@H]1C(=O)N[C@@H](CC(N)=O)C(=O)N[C@H]2C(=O)N[C@H]3C(=O)N[C@H](C(=O)N[C@H](C(=O)O)c4cc(O)cc(O)c4-c4cc3ccc4O)[C@H](O)c3ccc(c(Cl)c3)Oc3cc2cc(c3O[C@@H]2O[C@H](CO)[C@@H](O)[C@H](O)[C@H]2O[C@H]2C[C@](C)(N)[C@H](O)[C@H](C)O2)Oc2ccc(cc2Cl)[C@H]1O` [Vancomycin]: the “Sensitive (S)/Resistant (R), E. coli” value in assay [1] is recorded as “R”. Moreover, the “Sensitive … K. pneumoniae” value in assay [2] is “R”. Also, the “Sensitive … S. Typhimurium” value in assay [3] is reported as “R”.

Turning to `CCn1cc(C(=O)O)c(=O)c2cnc(N3CCNCC3)nc21` [Pipemidic acid], in assay [1], the “Sensitive (S)/Resistant (R), E. coli” value is given as “S”. Moreover, the “Sensitive … K. pneumoniae” value in assay [2] was “S”. The “Sensitive … S. Typhimurium” value in assay [3] is recorded as “S”.

Consider `CO/N=C(\C(=O)N[C@@H]1C(=O)N2C(C(=O)O)=C(COC(N)=O)CS[C@H]12)c1ccco1` [Cefuroxime], for which the “Sensitive (S)/Resistant (R), E. coli” value in assay [1] is given as “S”. Also, in assay [2], the “Sensitive … K. pneumoniae” value is “S”. Also, the “Sensitive … S. Typhimurium” value in assay [3] is “S”.

On to `CCC[C@@H]1C[C@@H](C(=O)N[C@@H]([C@H]2O[C@H](SC)[C@H](O)[C@@H](O)[C@H]2O)[C@H](C)Cl)N(C)C1` [Clindamycin], for which, in assay [1], the “Sensitive (S)/Resistant (R), E. coli” value was “R”. The “Sensitive … K. pneumoniae” value in assay [2] was “R”. In addition, the “Sensitive … S. Typhimurium” value in assay [3] is listed as “R”.

Turning to `CCC[C@@H]1C[C@@H](C(=O)N[C@@H]([C@H]2O[C@H](SC)[C@H](O)[C@@H](O)[C@H]2O)[C@@H](C)O)N(C)C1` [Lincomycin], the “Sensitive (S)/Resistant (R), E. coli” value in assay [1] is listed as “R”. Moreover, in assay [2], the “Sensitive … K. pneumoniae” value is reported as “R”. The “Sensitive … S. Typhimurium” value in assay [3] was “R”.

As for `CC[C@H]1OC(=O)[C@H](C)[C@@H](O[C@H]2C[C@@](C)(OC)[C@@H](O)[C@H](C)O2)[C@H](C)[C@@H](O[C@@H]2O[C@H](C)C[C@H](N(C)C)[C@H]2O)[C@](C)(O)C[C@@H](C)C(=O)[C@H](C)[C@@H](O)[C@]1(C)O` [Erythromycin], the “Sensitive (S)/Resistant (R), E. coli” value in assay [1] is recorded as “R”. The “Sensitive … K. pneumoniae” value in assay [2] is recorded as “R”. In assay [3], the “Sensitive … S. Typhimurium” value was “R”.

As to `CN1CCN(c2c(F)cc3c(=O)c(C(=O)O)cn(CCF)c3c2F)CC1` [Fleroxacin], in assay [1], the “Sensitive (S)/Resistant (R), E. coli” value is recorded as “S”. Moreover, the “Sensitive … K. pneumoniae” value in assay [2] is “S”.

Consider Neomycin, for which the “Sensitive (S)/Resistant (R), B. subtilis” value in assay [4] is “S”. Further, in assay [1], the “Sensitive (S)/Resistant (R), E. coli” value is on record as “S”. The “Sensitive … K. pneumoniae” value in assay [2] is “S”. The “Sensitive … S. Typhimurium” value in assay [3] was “S”.

For the compound `C[C@@H](O)[C@H]1C(=O)N2C(C(=O)O)=C(SCCN=CN)C[C@H]12` [Imipenem], in assay [1], the “Sensitive (S)/Resistant (R), E. coli” value is “S”. In assay [2], the “Sensitive … K. pneumoniae” value was “S”. Further, the “Sensitive … S. Typhimurium” value in assay [3] is recorded as “S”.

Take `[H]/N=C(/N)N[C@H]1[C@H](O)[C@@H](O)[C@H](O[C@@H]2O[C@@H](C)[C@](O)(C=O)[C@H]2O[C@@H]2O[C@@H](CO)[C@H](O)[C@@H](O)[C@@H]2NC)[C@@H](N/C(N)=N\[H])[C@@H]1O` [Streptomycin]: the “Sensitive (S)/Resistant (R), E. coli” value in assay [1] is “R”. For the same compound, the “Sensitive … K. pneumoniae” value in assay [2] is recorded as “S”. Besides, the “Sensitive … S. Typhimurium” value in assay [3] is listed as “S”.

As for `CC1(C)S[C@@H]2[C@H](NC(=O)[C@H](N)c3ccc(O)cc3)C(=O)N2[C@H]1C(=O)O` [Amoxicillin], in assay [1], the “Sensitive (S)/Resistant (R), E. coli” value was “S”. Further, the “Sensitive … K. pneumoniae” value in assay [2] is listed as “R”. Also, in assay [3], the “Sensitive … S. Typhimurium” value was “S”.

Consider `CC1=C(C(=O)O)N2C(=O)[C@@H](NC(=O)[C@H](N)c3ccccc3)[C@H]2SC1` [Cefalexin], for which, in assay [1], the “Sensitive (S)/Resistant (R), E. coli” value is “S”. In addition, the “Sensitive … K. pneumoniae” value in assay [2] was “S”. Further, the “Sensitive … S. Typhimurium” value in assay [3] is given as “S”.

With `CCn1cc(C(=O)O)c(=O)c2ccc(C)nc21` [Nalidixic acid], the “Sensitive (S)/Resistant (R), E. coli” value in assay [1] is “S”. Besides, the “Sensitive … K. pneumoniae” value in assay [2] is “S”. Further, the “Sensitive … S. Typhimurium” value in assay [3] was “S”.

With `NCC[C@H](O)C(=O)N[C@@H]1C[C@H](N)[C@@H](O[C@H]2O[C@H](CN)[C@@H](O)[C@H](O)[C@H]2O)[C@H](O)[C@H]1O[C@H]1O[C@H](CO)[C@@H](O)[C@H](N)[C@H]1O` [Amikacin], the “Sensitive (S)/Resistant (R), E. coli” value in assay [1] was “S”. The “Sensitive … K. pneumoniae” value in assay [2] is “S”. In assay [3], the “Sensitive … S. Typhimurium” value is “S”.
